Assay results reported in ChEMBL document CHEMBL1759889, “Susceptibility and mode of binding of the Mycobacterium tuberculosis cysteinyl transferase mycothiol ligase to tRNA synthetase inhibitors” (Bioorg Med Chem Lett, 2011).
Calls of active or inactive are those of the source. No cut-off for these calls is given here.

Experiments:
[1] = molecular target: T1, L-cysteine:1D-myo-inositol 2-amino-2-deoxy-alpha-D-glucopyranoside ligase (Mycobacterium tuberculosis, UniProt P9WJM9); assay: Inhibition of Mycobacterium tuberculosis recombinant MBP-tagged MshC assessed as formation of fluorescently labeled Cys-GlcN-Ins by HPLC
T1 sequence (P9WJM9 whole entry): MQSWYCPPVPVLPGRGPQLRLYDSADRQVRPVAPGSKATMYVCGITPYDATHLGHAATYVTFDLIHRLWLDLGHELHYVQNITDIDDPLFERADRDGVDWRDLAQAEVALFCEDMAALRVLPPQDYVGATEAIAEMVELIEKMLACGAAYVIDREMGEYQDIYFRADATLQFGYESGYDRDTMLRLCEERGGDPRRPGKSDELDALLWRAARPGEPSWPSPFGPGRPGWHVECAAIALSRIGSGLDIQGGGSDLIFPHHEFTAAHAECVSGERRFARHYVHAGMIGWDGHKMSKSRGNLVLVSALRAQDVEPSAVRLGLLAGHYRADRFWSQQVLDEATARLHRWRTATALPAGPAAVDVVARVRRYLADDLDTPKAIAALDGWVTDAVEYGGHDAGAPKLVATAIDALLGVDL

[2] = molecular target: T2, L-cysteine:1D-myo-inositol 2-amino-2-deoxy-alpha-D-glucopyranoside ligase (Mycobacterium tuberculosis) (UniProt P9WJM9); assay: Binding affinity to Mycobacterium tuberculosis recombinant MBP-tagged MshC by STD-NMR analysis
T2 sequence (whole entry): T1 sequence (P9WJM9 whole entry)

[3] = molecular target: T2, L-cysteine:1D-myo-inositol 2-amino-2-deoxy-alpha-D-glucopyranoside ligase (Mycobacterium tuberculosis); assay: Binding affinity to Mycobacterium tuberculosis recombinant MBP-tagged MshC by transferred NOESY analysis
[4] = molecular target: T1, L-cysteine:1D-myo-inositol 2-amino-2-deoxy-alpha-D-glucopyranoside ligase; assay: Binding affinity to Mycobacterium tuberculosis recombinant MBP-tagged MshC by isothermal titration calorimetry assay

| Compound | IC50 [1] [µM] | Activity [2] | Activity [3] | Kd [4] [µM] |
| --- | --- | --- | --- | --- |
| Nc1ncnc2c1ncn2[C@@H]1O[C@H](COS(=O)(=O)NC(=O)[C@@H](N)CC(=O)O)[C@@H](O)[C@H]1O | 1200 | inactive | inactive |  |
| C[C@@H]1Cc2c(Cl)cc(C(=O)N[C@@H](Cc3ccccc3)C(=O)O)c(O)c2C(=O)O1 [3R14S-OCHRATOXIN A] | 2500 |  |  |  |
| N[C@H]1CCC[C@H]1C(=O)O | > 4000 |  |  |  |
| C/C(=C\C(=O)OCCCCCCCCC(=O)O)C[C@@H]1OC[C@H](C[C@@H]2O[C@H]2[C@@H](C)[C@H](C)O)[C@@H](O)[C@H]1O [MUPIROCIN] | > 5000 |  |  |  |
| C[C@@H]1C[C@H](C)C[C@H](C)[C@@H](O)CC(=O)O[C@H]([C@@H]2CCC[C@H]2C(=O)O)C/C=C/C=C(/C#N)[C@H](O)[C@@H](C)C1 [BORRELIDIN] | > 2000 |  |  |  |
| Nc1ncnc2c1ncn2[C@@H]1O[C@H](COS(=O)(=O)NC(=O)[C@@H](N)CO)[C@@H](O)[C@H]1O | 5000 |  |  |  |
| Nc1ncnc2c1ncn2[C@@H]1O[C@H](COS(=O)(=O)NC(=O)[C@@H](N)CS)[C@@H](O)[C@H]1O | 0.05 | inactive |  | 0.0485 |
